Measured values as given in patent publication US5300491A, “Treatment of protozoal infection” (priority 1992, dated 1994).
In brackets after ≈: the same amount, converted by molar mass. Bridge positions count the residues as written; N and C are the ends. Square brackets hold non-standard residues; d marks the D form. Peptide text beside a SMILES is read from it. * marks the point of attachment. Ileψ(thiazoline)Cys = CC[C@H](C)[C@H](N)C1=N[C@H](C(=O)*)CS1; dOrn = NCCC[C@@H](N)C(=O)O

Tests used:
[1] = system: E. histolytica axenic cultures (NIH:200); experiment: Axenic culture study of E. histolytica (NIH:200), cell number reduction; format: cell-based, Entamoeba histolytica
Protocol: Axenic cultures are isolates of amoeba which have been adapted for growth in the absence of bacteria, i.e. they comprise sterile cultures. E. histolytica axenic cultures (NIH:200) were maintained according to the method of Diamond, J. Parasitol. 54, 1047-56 (1968) in TP-S-1 medium modified by replacing the vitamin solution with 2.5% NCTC 135. […] Amoebae were harvested by cooling tubes at 4° C. for 20 minutes in an ice-bath prior to centrifugation at 1,000 rpm for 8 minutes at 4° C. Assays were performed over 36-48 hours, rather than the 24 hour period used for xenic cultures, due to the more extended division time of axenic cultures. All assays were performed in triplicate.

[2] = system: E. histolytica; experiment: Amoebiasis clinical study; format: in vivo, Human
Protocol: Cysts and trophozoites of E. histolytica were detected initially by wet preparation screening of faeces, and later confirmed by the formal-ether technique. Full parasitological cure was based upon the presentation of 1-2 negative stool samples within one week post treatment.
In a dose-effect segment of the study, two groups of symptomatic E. histolytica cyst or trophozoite passers attending an outpatient clinic for abdominal pains were treated for either ten or five days.
In a dose-duration study, three groups of patients were observed: Group 1 - symptomatic cyst and trophozoite passers; Group 2 - dysenteric patients with bloody diarrheas; and, Group 3 - asymptomatic cyst passers.

[3] = system: Tritrichomonas foetus; experiment: Tritrichomonas foetus assay (MLC); format: cell-based
Protocol: Duplicate plates of each isolate were prepared. One set of plates was exposed to an aerobic environment; and, the second set was exposed to an anaerobic environment. An Oxoid HP 11 anaerobic gas chamber and BR 38 gas generating kit were used to produce the anaerobic environment. […]

[4] = system: G. lamblia; experiment: G. lamblia clinical study; format: in vivo, Human; conditions: for patients responding: 200,000 IU daily as tablets for ten days
Source text: Based upon this dosage, 6 of the ten metronida-zole-resistant patients in Sweden responded to this regime. In addition, all of the 11 non-selected patients in Romania responded to this regime. Eight of these 11 non-selected patients remained clear of infection for the length of the study.

[5] = system: Cryptosporidium parvum; format: in vivo, Human
Source text: The patient was a child, weighing approximately 30 kg. For years, the patient had suffered from moderate diarrhea. Prior to being treated with zinc bacitracin, the patient's stool repeatedly tested positive for intestinal Cryptosporidia. […] The patient received sulfonamide and cefalexin for the influenza during the hiatus. The zinc bacitracin treatment resumed approximately one month later and continued for two weeks thereafter.
After the treatment period, it was observed that the drug was well-tolerated by the patient.

[6] = system: histidine auxotrophs of Salmonella typhimurium; conditions: absence and presence of a rat liver activating system; cited from earlier work
[7] = system: mouse lymphoma cell; conditions: cited from earlier work
[8] = system: human peripheral lymphocytes; conditions: cited from earlier work
[9] = system: spleen cells of rats; conditions: rat, in vivo; cited from earlier work
[10] = cited from earlier work
[11] = system: intestinal amoebic infections; conditions: cited from earlier work
[12] = Group 1, 9 patients treated for two days
[13] = Group 1, 12 patients treated for 3 days
[14] = Table 5 dose-effect study, symptomatic cyst & trophozoite passers, 100,000 I.U. daily for 5 days, 5 patients
[15] = Table 5 dose-effect study, symptomatic cyst & trophozoite passers, 100,000 I.U. daily for 10 days, 9 patients
[16] = Table 6 dose-duration study, Group 1 symptomatic cyst and trophozoite passers, 1 day, 2 patients
[17] = Table 6 dose-duration study, Group 1 symptomatic cyst and trophozoite passers, 2 days, 9 patients
[18] = Table 6 dose-duration study, Group 1 symptomatic cyst and trophozoite passers, 3 days, 12 patients
[19] = Table 6 dose-duration study, Group 1 symptomatic cyst and trophozoite passers, 5 days, 5 patients
[20] = Table 7 dose-duration study, Group 2 dysentery cases, 3 days, 5 patients
[21] = Table 8 dose-duration study, Group 3 asymptomatic cyst passers, 3 days, 9 patients
[22] = Table 8 dose-duration study, Group 3 asymptomatic cyst passers, 5 days, 9 patients
[23] = 11 non-selected patients in Romania

Which results are given for Zinc bacitracin?
Cell number reduction compared to controls ([1]; axenic culture, 1 mg/ml): 68.3%; Cell number reduction compared to controls ([1]; axenic culture, 2 mg/ml): 90.6%; Cell number reduction compared to controls ([1]; axenic culture, 5 mg/ml): > 99.5%; concentration required for lethality in axenic as opposed to xenic amoeba cultures ([1]; axenic versus xenic): 2-3 times; cure ([2]; 100,000 I.U. daily for 3-5 days): 100%; cure rate [2, 12]: 55%; relapse rate [2, 12]: 60%; patients relapsed (at days 6 and 10) [2, 13]: 16%; primary cure rate [2, 13]: 100%; treatment outcome ([2]; Group 1, two patients treated for 1 day): without success; subjects showing parasites in their stools again after two weeks ([2]; Group 3 asymptomatic cyst passers, five-day regimen, 9 subjects): 44%; Number Relapsing [2, 14]: 0; Number Responding [2, 14]: 5; Number Relapsing [2, 15]: 0; Number Responding [2, 15]: 9; Number Relapsing [2, 16]: 1; Number Responding [2, 16]: 1; Number Relapsing [2, 17]: 3; Number Responding [2, 17]: 5; Number Relapsing [2, 18]: 2; Number Responding [2, 18]: 12; Number Relapsing [2, 19]: 1; Number Responding [2, 19]: 5; Number Relapsing [2, 20]: 1; Number Responding [2, 20]: 5; Number Relapsing [2, 21]: 2; Number Responding [2, 21]: 8; Number Relapsing [2, 22]: 4; Number Responding [2, 22]: 9; side effects ([2]; all patients of the amoebiasis clinical study, 100,000 I.U. daily): No side effects were reported; cure rate ([2]; dose-effect study, 9 patients treated for 10 days): 100%; MLC ([3]; isolate 121, aerobic): 6 mg/mL; MLC ([3]; isolate 121, anaerobic): 6 mg/mL; MLC ([3]; isolate 138, aerobic): 6 mg/mL; MLC ([3]; isolate 138, anaerobic): 6 mg/mL; MLC ([3]; isolate ATCC 30166, aerobic): 6 mg/mL; MLC ([3]; isolate ATCC 30166, anaerobic): 6 mg/mL; MLC ([3]; isolate FT.3741, aerobic): 6 mg/mL; MLC ([3]; isolate FT.3741, anaerobic): 5 mg/mL; MLC ([3]; isolate S10, aerobic): 6 mg/mL; MLC ([3]; isolate S10, anaerobic): 6 mg/mL; MLC ([3]; isolate TF.7, aerobic): 6 mg/mL; MLC ([3]; isolate TF.7, anaerobic): 6 mg/mL; patients remaining clear of infection for the length of the study [4, 23]: Eight; patients responding [4, 23]: 11; patients responding ([4]; ten metronidazole-resistant patients in Sweden): 6; stool parasites over the course of the treatment period ([5]; child, 30,000 units thrice daily, 8 days and later two weeks): No stool parasites were detected; tolerability ([5]; human, in vivo): well-tolerated; stool test after end of treatment ([5]; one week after the final discontinuation of treatment): began to once again test positive for intestinal cryptosporidia; mutagenic potential [6]: devoid of mutagenic potential; mutation frequency at the TK gene locus [7]: no significant increase in the mutation frequency; damage to chromosomal structure [8]: did not induce any damage to the chromosomal structure; nucleoid sedimentation velocity [9]: Only a small reduction in nucleoid sedimentation velocity; absorption from the gut ([10]; rat, in vivo, po): not absorbed from the gut; levels in the livers ([10]; rat, in vivo, po): No detectable levels; oral toxicity ([10]; rats, sub-chronic and chronic, feed levels up to 1,000 ppm): non-toxic

With `CC[C@H](C)[C@H](N)C1=N[C@H](C(=O)N[C@@H](CC(C)C)C(=O)N[C@H](CCC(=O)O)C(=O)N[C@H](C(=O)N[C@H]2CCCCNC(=O)[C@H](CC(N)=O)NC(=O)[C@@H](CC(=O)O)NC(=O)[C@H](Cc3cnc[nH]3)NC(=O)[C@@H](Cc3ccccc3)NC(=O)[C@H]([C@@H](C)CC)NC(=O)[C@@H](CCCN)NC2=O)[C@@H](C)CC)CS1` [Bacitracin, reference compound] ({Ileψ(thiazoline)Cys}-L[dE]IK[dOrn]I[dF]H[dD]N; lactam 4-C) as the compound, how does the “Cell number reduction compared to controls” value (shortened to “Cell number reduction”) ([1]; axenic culture, 2.5 mg/ml) read?
Its value is 76.4%.

And the “Cell number reduction” value ([1]; axenic culture, 5 mg/ml)?
Its value is 92.3%.

And the “Cell number reduction” value ([1]; axenic culture, 10 mg/ml)?
The value was 97.7%.

What about the “Cell number reduction” value ([1]; axenic culture, 15 mg/ml) of the same compound?
The value was 99.9%.

What about the killing of amoeba ([1]; axenic culture, 20 mg/ml, 48 hours) of the same compound?
Its killing of amoeba is “All amoeba were killed”.

What about the MLC ([3]; isolate 121, aerobic) of the same compound?
Its MLC is 28 mg/mL (≈ 19.7 mM).

And the MLC ([3]; isolate 121, anaerobic)?
Its MLC is 28 mg/mL (≈ 19.7 mM).

And the MLC ([3]; isolate 138, aerobic)?
The MLC was 28 mg/mL (≈ 19.7 mM).

What about the MLC ([3]; isolate 138, anaerobic) of the same compound?
The MLC was 28 mg/mL (≈ 19.7 mM).

And the MLC ([3]; isolate ATCC 30166, aerobic)?
The MLC was 28 mg/mL (≈ 19.7 mM).

And the MLC ([3]; isolate ATCC 30166, anaerobic)?
The MLC was 28 mg/mL (≈ 19.7 mM).

And the MLC ([3]; isolate FT.3741, aerobic)?
Its MLC is 28 mg/mL (≈ 19.7 mM).

And the MLC ([3]; isolate FT.3741, anaerobic)?
The MLC was 28 mg/mL (≈ 19.7 mM).

What about the MLC ([3]; isolate S10, aerobic) of the same compound?
The MLC was 28 mg/mL (≈ 19.7 mM).

And the MLC ([3]; isolate S10, anaerobic)?
The MLC was 28 mg/mL (≈ 19.7 mM).

What about the MLC ([3]; isolate TF.7, aerobic) of the same compound?
The MLC was 28 mg/mL (≈ 19.7 mM).

And the MLC ([3]; isolate TF.7, anaerobic)?
The MLC was 28 mg/mL (≈ 19.7 mM).

What about the parasitological cure ([11]; 51 patients, 10-20 days, 40,000 to 160,000 units) of the same compound?
The parasitological cure was 66%.

What about the cure rate ([11]; 100,000 I.U. daily over ten days) of the same compound?
Its cure rate is under 100%.
